Measured values taken from the NIST ThermoML archive (doi:10.1021/je049776w).
± gives the expanded uncertainty stated by the source.

Assay: xn = mol fraction of the nth substance listed
Conditions: 101.3 kPa, Liquid

Cc1ccc(C)cc1 [1,4-dimethylbenzene] + CN1CCCC1=O
Conditions	mass density [kg/m3]	viscosity [mPa·s]
303.15 K, x1 = 0.0947	1005.71 ± 2.4	1.359 ± 0.045
303.15 K, x1 = 0.1893	988.37 ± 2.1	1.239 ± 0.039
303.15 K, x1 = 0.2858	971.07 ± 1.9	1.129 ± 0.034
303.15 K, x1 = 0.3838	953.82 ± 1.6	1.02 ± 0.03
303.15 K, x1 = 0.483	936.56 ± 1.4	0.9203 ± 0.026
303.15 K, x1 = 0.5836	919.47 ± 1.1	0.8327 ± 0.023
303.15 K, x1 = 0.6854	902.73 ± 0.96	0.7753 ± 0.021
303.15 K, x1 = 0.7888	885.85 ± 0.82	0.7001 ± 0.019
303.15 K, x1 = 0.8937	869.04 ± 0.73	0.6291 ± 0.017
303.15 K, x1 = 1	852.35 ± 0.72	0.5715 ± 0.015
313.15 K, x1 = 0.0947	996.79 ± 2.4	1.173 ± 0.039
313.15 K, x1 = 0.1893	979.45 ± 2.1	1.07 ± 0.034
313.15 K, x1 = 0.2858	962.14 ± 1.9	0.9754 ± 0.03
313.15 K, x1 = 0.3838	944.9 ± 1.6	0.8894 ± 0.026
313.15 K, x1 = 0.483	927.68 ± 1.4	0.807 ± 0.023
313.15 K, x1 = 0.5836	910.56 ± 1.1	0.7296 ± 0.021
313.15 K, x1 = 0.6854	893.86 ± 0.97	0.6862 ± 0.019
313.15 K, x1 = 0.7888	877.02 ± 0.83	0.619 ± 0.017
313.15 K, x1 = 0.8937	860.27 ± 0.75	0.5579 ± 0.015
313.15 K, x1 = 1	843.64 ± 0.74	0.508 ± 0.014
323.15 K, x1 = 0.0947	987.88 ± 2.4	1.023 ± 0.034
323.15 K, x1 = 0.1893	970.53 ± 2.1	0.9373 ± 0.03
323.15 K, x1 = 0.2858	953.21 ± 1.8	0.8571 ± 0.027
323.15 K, x1 = 0.3838	935.97 ± 1.6	0.7795 ± 0.024
323.15 K, x1 = 0.483	918.77 ± 1.4	0.7084 ± 0.021
323.15 K, x1 = 0.5836	901.68 ± 1.2	0.6521 ± 0.019
323.15 K, x1 = 0.6854	884.99 ± 0.98	0.6084 ± 0.017
323.15 K, x1 = 0.7888	868.16 ± 0.85	0.5517 ± 0.015
323.15 K, x1 = 0.8937	851.46 ± 0.78	0.4998 ± 0.014
323.15 K, x1 = 1	834.9 ± 0.77	0.4599 ± 0.013
333.15 K, x1 = 0.0947	978.93 ± 2.4	0.9019 ± 0.031
333.15 K, x1 = 0.1893	961.55 ± 2.1	0.8316 ± 0.027
333.15 K, x1 = 0.2858	944.23 ± 1.8	0.7602 ± 0.024
333.15 K, x1 = 0.3838	926.99 ± 1.6	0.694 ± 0.021
333.15 K, x1 = 0.483	909.8 ± 1.4	0.6321 ± 0.019
333.15 K, x1 = 0.5836	892.71 ± 1.2	0.5828 ± 0.017
333.15 K, x1 = 0.6854	876.03 ± 0.99	0.5437 ± 0.016
333.15 K, x1 = 0.7888	859.21 ± 0.87	0.4947 ± 0.014
333.15 K, x1 = 0.8937	842.56 ± 0.8	0.4504 ± 0.013
333.15 K, x1 = 1	826.09 ± 0.8	0.4298 ± 0.013
343.15 K, x1 = 0.0947	969.95 ± 2.3	0.8009 ± 0.027
343.15 K, x1 = 0.1893	952.56 ± 2.1	0.7371 ± 0.024
343.15 K, x1 = 0.2858	935.23 ± 1.8	0.681 ± 0.022
343.15 K, x1 = 0.3838	917.98 ± 1.6	0.6209 ± 0.019
343.15 K, x1 = 0.483	900.82 ± 1.4	0.5686 ± 0.017
343.15 K, x1 = 0.5836	883.72 ± 1.2	0.5173 ± 0.015
343.15 K, x1 = 0.6854	867.04 ± 1	0.4921 ± 0.015
343.15 K, x1 = 0.7888	850.22 ± 0.89	0.4476 ± 0.013
343.15 K, x1 = 0.8937	833.61 ± 0.83	0.4081 ± 0.013
343.15 K, x1 = 1	817.17 ± 0.83	0.3783 ± 0.012
353.15 K, x1 = 0.0947	960.94 ± 2.3	0.7219 ± 0.025
353.15 K, x1 = 0.1893	943.54 ± 2.1	0.6637 ± 0.022
353.15 K, x1 = 0.2858	926.19 ± 1.8	0.6119 ± 0.02
353.15 K, x1 = 0.3838	908.93 ± 1.6	0.561 ± 0.018
353.15 K, x1 = 0.483	891.78 ± 1.4	0.5127 ± 0.016
353.15 K, x1 = 0.5836	874.66 ± 1.2	0.4761 ± 0.015
353.15 K, x1 = 0.6854	857.97 ± 1	0.4466 ± 0.014
353.15 K, x1 = 0.7888	841.16 ± 0.91	0.4072 ± 0.013
353.15 K, x1 = 0.8937	824.56 ± 0.85	0.3726 ± 0.012
353.15 K, x1 = 1	808.22 ± 0.85	0.3382 ± 0.011
